Test results: PubChem BioAssay (NCI)
Where “and” joins values, the source holds several entries; their conditions need not be identical. Equal entries are not always repeated.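 Interpolation was linear, between the two tested concentrations surrounding the appropriate level; five concentrations were tested over 48 hours in 96-well plates. GI50 = concentration required for 50% inhibition of growth. The concentration for full growth arrest is given as TGI.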

Experiments:
Assay in all cases: growth of human tumour cells (NCI), 48 h
SNB-75 CNS = system: SNB-75 CNS
PC-3 prostate = system: PC-3 prostate
A498 renal = system: A498 renal
HOP-92 NSCLC = system: HOP-92 NSCLC
T-47D breast = system: T-47D breast
MDA-N = system: MDA-N
UACC-62 melanoma = system: UACC-62 melanoma
786-0 renal = system: 786-0 renal
DU-145 prostate = system: DU-145 prostate
SR leukemia = system: SR leukemia

| SMILES | TGI (SNB-75 CNS) | TGI (PC-3 prostate) | TGI (A498 renal) | TGI (HOP-92 NSCLC) | TGI (T-47D breast) | TGI (MDA-N) | TGI (UACC-62 melanoma) | TGI (786-0 renal) | TGI (DU-145 prostate) | TGI (SR leukemia) | GI50 (PC-3 prostate) | GI50 (A498 renal) | GI50 (T-47D breast) | GI50 (MDA-N) | GI50 (HOP-92 NSCLC) | GI50 (UACC-62 melanoma) | GI50 (SR leukemia) | GI50 (SNB-75 CNS) | GI50 (DU-145 prostate) |
| --- | --- | --- | --- | --- | --- | --- | --- | --- | --- | --- | --- | --- | --- | --- | --- | --- | --- | --- | --- |
| O=C(c1cc(Cl)cc(Cl)c1)N(Cc1cccnc1)C(=S)N(Cc1cccnc1)C(=O)c1cc(Cl)cc(Cl)c1 | > 100 µM | 60.6 µM | 81.2 µM | > 100 µM | > 100 µM | > 100 µM | > 100 µM | 73.8 µM | > 100 µM | > 100 µM | – | – | – | – | – | – | – | – | – |
| CC[C@@]1(O)C(=O)OCc2c1cc1n(c2=O)Cc2cc3c(CN(C)C)c(O)ccc3nc2-1 | – | > 90.1 µM and 14.8 µM and 35 µM | – | – | – | 0.777 µM and 5.2 µM and 0.902 µM | – | – | – | – | 0.0425 µM and 0.26 µM | 0.0205 µM and 0.0299 µM | < 0.0117 µM and 0.0189 µM and 0.0186 µM | 0.0241 µM and 0.119 µM and 0.0221 µM | – | – | – | – | – |
| O=c1ccn(Cc2ccccc2CCl)c(=O)[nH]1 | > 100 µM | > 100 µM | – | > 100 µM | > 100 µM | – | 63.4 µM | 38 µM | > 100 µM | 73.4 µM | – | – | – | – | – | – | – | – | – |
| O=c1ccc2c(Cl)cccc2o1 | > 100 µM | > 100 µM | > 100 µM | > 100 µM | > 100 µM | > 100 µM | > 100 µM | – | > 100 µM | > 100 µM | – | – | – | – | – | – | – | – | – |
| O=c1oc2ccc3ccccc3c2cc1-c1nc(-c2ccc([N+](=O)[O-])cc2)n[nH]1 | – | > 100 µM | > 100 µM | – | – | > 100 µM | > 100 µM | > 100 µM | > 100 µM | > 100 µM | – | – | – | – | – | – | – | – | – |
| O=C(CC(Cc1ccccc1)c1ccc(Oc2ccccc2)cc1)Nc1cccc(Cl)c1 (configuration not stated) | 56.6 µM | 27.2 µM | 26.3 µM | 5.51 µM | 8.49 µM | > 100 µM | 14.8 µM | > 100 µM | > 100 µM | 47.5 µM | – | – | – | – | – | – | – | – | – |
| Fc1cc(C2=Nn3c(CNc4ccc(Cl)cc4)nnc3S/C2=C\c2ccc(-c3ccc(Cl)cc3)o2)c(Cl)cc1Cl | – | 51 µM | 65.6 µM | – | > 100 µM | > 100 µM | 55.8 µM | > 100 µM | > 100 µM | > 100 µM | – | – | – | – | – | – | – | – | – |
| CC(C)(C)CNCCCNc1ccc(Cl)cc1 | – | > 100 µM | 51.5 µM | 79.4 µM | – | > 100 µM | 33.4 µM | > 100 µM | > 100 µM | 49.4 µM | – | – | – | – | – | – | – | – | – |
| OC(c1ccccc1)C1CC2C=CC1C2 (configuration not stated) | > 100 µM | – | > 100 µM | > 100 µM | – | – | > 100 µM | – | – | – | – | – | – | – | – | – | – | – | – |
| Clc1ccc(OCc2nnc3sc(SSc4nn5c(COc6ccc(Cl)cc6)nnc5s4)nn23)cc1 | > 100 µM | – | 86 µM | > 100 µM | > 100 µM | – | > 100 µM | > 100 µM | > 100 µM | > 100 µM | – | 28.9 µM | – | – | 18.2 µM | 44.7 µM | 14.2 µM | – | – |
| CSC1=C(SC)C(=O)c2cn(C)c(=O)cc2C1=O | 22.5 µM | 26.2 µM | 28.4 µM | 2.12 µM | 3.99 µM | 3.06 µM | 7.21 µM | – | 21 µM | – | – | – | – | – | – | – | – | – | – |
| C1=Nc2ccccc2Cn2nncc21 | – | – | – | > 100 µM | – | – | 55.3 µM | – | – | > 100 µM | – | – | – | – | – | – | – | – | – |
| CC(C)=CC1C(COC(=O)c2ccccc2Cl)C1(C)C (configuration not stated) | – | > 100 µM | > 100 µM | 86.3 µM | > 100 µM | > 100 µM | > 100 µM | > 100 µM | > 100 µM | > 100 µM | – | – | – | – | – | – | – | – | – |
| CC(C(=O)NCCNC(=O)CCCC(=O)N(C)O)C(=O)NCCNC(=O)CCCC(=O)N(C)O | > 100 µM | > 100 µM | > 100 µM | > 100 µM | > 100 µM | > 100 µM | > 100 µM | – | > 100 µM | > 100 µM | – | – | – | – | – | – | – | – | – |
| CC1=NN(c2cccc(Cl)c2)C2(C1=Cc1cccs1)C(Cl)C(=O)N2c1nc2ccccc2s1 (configuration not stated) | 86.3 µM | 48.7 µM | 43.5 µM | 52.7 µM | > 100 µM | 48.1 µM | – | 29.1 µM | > 100 µM | 48.5 µM | – | – | – | – | – | – | – | – | – |
| COc1ccc(N2C(=O)C(=O)N(C)C2=O)c2ccccc12 | > 10 µM | > 10 µM | > 10 µM | – | > 10 µM | – | > 10 µM | – | > 10 µM | > 10 µM | – | – | – | – | – | – | – | – | – |
| OCC(O)C(O)C(O)C(O)CNCCO/N=C1/C(c2c(O)[nH]c3ccccc23)=Nc2ccccc21 (configuration not stated) | 24.5 µM | 30.8 µM | – | 26.9 µM | 22.5 µM | 19.4 µM | 17.5 µM | > 50 µM | > 50 µM | 25.3 µM | – | – | – | – | – | – | – | – | – |
| O=S(=O)(Nc1nccs1)c1ccc([As](=O)(O)O)cc1 | > 100 µM | > 100 µM | > 100 µM | > 100 µM | > 100 µM | – | > 100 µM | > 100 µM | > 100 µM | – | – | – | – | – | – | – | – | – | – |
| O=[N+]([O-])c1ccc(Cc2nc3cc4ccccc4cc3[nH]2)cc1C(F)(F)F | 37.3 µM | > 100 µM | 33.5 µM | 41.1 µM | 21.6 µM | – | – | 25.4 µM | 57.2 µM | – | – | – | – | – | – | – | – | – | – |
| Fc1ccc(Nc2ncc(-c3cc(F)c(Cl)cc3Cl)s2)cc1Cl | > 100 µM | 27.7 µM | 29.1 µM | 13.3 µM | > 100 µM | – | 26.5 µM | – | 30.8 µM | – | 14 µM | 11.2 µM | > 100 µM | – | 1.47 µM | 8.41 µM | – | 39.3 µM | 9.01 µM |
| CC(C)NC(=O)OCc1nnn2c1CCC2 | > 100 µM | – | – | > 100 µM | – | – | > 100 µM | – | – | > 100 µM | – | – | – | – | – | – | – | – | – |
| O=[N+]([O-])c1ccc(NNN=Nc2ccc(-c3nc4ccccc4[nH]3)cc2)c([N+](=O)[O-])c1 | > 100 µM | > 100 µM | 89.5 µM | > 100 µM | > 100 µM | > 100 µM | 38 µM | > 100 µM | > 100 µM | > 100 µM | – | – | – | – | – | – | – | – | – |
| Clc1ccc(C2CC(c3cccc(Nc4ccncc4)c3)=NN2c2ccccc2)cc1 (configuration not stated) | 2.79 µM | 3.12 µM | 3.3 µM | 2.82 µM | 4.86 µM | – | 3.13 µM | – | 3.27 µM | – | 1.6 µM | 1.43 µM | 2.1 µM | – | 1.4 µM | 1.71 µM | – | 1.37 µM | 1.73 µM |
| CC(C)C(=O)Nc1ccc(-c2nc(-c3cccc(OCCN4CCOCC4)c3)c(-c3ccnc(Br)c3)[nH]2)cc1 | 4.28 µM | 14.5 µM | 4.74 µM | 7.68 µM | 34.2 µM | – | 5.71 µM | – | > 100 µM | 7.09 µM | 3.08 µM | 1.6 µM | 2.68 µM | – | 2.32 µM | 2.1 µM | 1.83 µM | 0.647 µM | 4.48 µM |
| COc1ccc(/C=C2\C[C@H]3[C@@H]4CC=C5C[C@@H](OC(C)=O)CC[C@]5(C)[C@H]4CC[C@]3(C)C2=O)cc1OC | > 100 µM | > 100 µM | > 100 µM | > 100 µM | > 100 µM | > 100 µM | > 100 µM | > 100 µM | > 100 µM | > 100 µM | – | – | – | – | – | – | – | – | – |
| N#CC(NNC(=O)c1c(Cl)c(Cl)c(Cl)c(Cl)c1-c1nc2ccc(C(=O)c3ccccc3)cc2[nH]1)c1ccccc1 (configuration not stated) | 27.8 µM | > 100 µM | – | > 100 µM | 98.8 µM | 6.78 µM | – | 42.9 µM | > 100 µM | 11.2 µM | – | – | – | – | – | – | – | – | – |
